Like-named read-outs stand apart in the source and are kept apart here.
What was measured:
GOx [1] = biological target: T1, GOx (Aspergillus niger, UniProt P13006); conditions: for relative rate ± error / Ssubstrate − SL-Glu / Isubstrate / S/N / signal (Ibaseline − Isubstrate): 100 mM in PBS, 660 nm; for relative rate ± error: from exponential fits to the time series; for Ssubstrate − SL-Glu: signal minus L-Glu reference signal; for Isubstrate / S/N / signal (Ibaseline − Isubstrate): single MSPRS
T1 sequence (P13006 23-605 limits assumed): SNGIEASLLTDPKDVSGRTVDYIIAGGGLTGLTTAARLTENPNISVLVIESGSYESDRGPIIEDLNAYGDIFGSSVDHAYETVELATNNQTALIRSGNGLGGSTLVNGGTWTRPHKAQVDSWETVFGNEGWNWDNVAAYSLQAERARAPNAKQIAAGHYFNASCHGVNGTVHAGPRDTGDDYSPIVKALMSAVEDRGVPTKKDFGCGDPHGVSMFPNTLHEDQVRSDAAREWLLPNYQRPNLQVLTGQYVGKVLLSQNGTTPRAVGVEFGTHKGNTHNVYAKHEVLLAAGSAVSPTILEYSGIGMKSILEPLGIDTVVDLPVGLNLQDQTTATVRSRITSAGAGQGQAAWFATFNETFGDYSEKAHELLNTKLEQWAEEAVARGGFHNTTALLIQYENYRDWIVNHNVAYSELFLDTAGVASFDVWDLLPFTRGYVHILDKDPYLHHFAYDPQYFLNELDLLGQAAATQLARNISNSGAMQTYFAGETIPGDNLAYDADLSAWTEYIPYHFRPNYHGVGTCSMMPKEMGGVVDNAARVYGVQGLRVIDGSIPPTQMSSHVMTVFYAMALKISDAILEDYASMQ
Method: The resonance measured at 660 nm wavelength was used to monitor reaction kinetics because it had the least overlap with neighboring peaks and because it lay in the red-NIR (near infra-red) optical window of tissue transparency, which allows use of MSPRSs to study complex media like blood, blood plasma and serum.
After depositing the cross-linker, we rinsed the end of the tubing for 10 s with DI-water using a 1 mL syringe. […] After the MSPR sensor signal reached a stable plateau indicating reaction saturation, the sensors were rinsed with DI-water until no further change in signal was recorded.

GOx [2] = biological target: T1, GOx; conditions: cited from earlier work
GOx [3] = biological target: T1, GOx; experiment: MSPR sensor monitoring of Gox enzymatic activity under substrate flow; conditions: for enzymatic activity response of Gox: flow of substrate, concentration not given
[4] = Biacore 3000
[5] = MSPR sensor, monolayer formation / adsorption kinetics on the gold surface
[6] = Biacore 3000 bare-gold-surface SPR chip, gold-DTSSP binding

Compound	relative rate ± error (GOx [1]) [%]	Ssubstrate − SL-Glu (GOx [1]) [counts/s]	Isubstrate (GOx [1]) [counts/s]	S/N (GOx [1])	signal (Ibaseline − Isubstrate) (GOx [1]) [counts/s]	reaction rate with GOx as % of the βD-Glu rate (GOx [2]) [%]	other results
O=CC[C@@H](O)[C@H](O)[C@H](O)CO [2Do-Glu, 2-Deoxy-D-Glucose]	0.06 ± 65	14	22190	57 (17.5 dB)	535	20	enzymatic activity response of Gox (GOx [3]): no enzymatic activity response
glucose oxidase [GOx]							decrease of output signal on binding (6.25 μM in DI-water, from DTSSP baseline): 1,424 counts/s; reaction time, DTSSP-GOx binding (Example 6, MSPR sensor, exponential fit): 211 ± 4 s; SPR binding signal [4]: 553 RU; reaction time, DTSSP-GOx binding ([4]; exponential fitting): 211 ± 4 s
O=C[C@@H](O)[C@H](O)[C@@H](O)[C@@H](O)CO [L-Glu, L-Glucose]	0.00 ± 0	0	22236	21 (13.2 dB)	521	0	interaction between substrate and sensor (GOx [1]; wash-in and wash-out, PBS baseline): absence of both specific and non-specific interactions; enzymatic activity response of Gox (GOx [3]): no enzymatic activity response
OC[C@H]1O[C@@H](O)[C@H](O)[C@@H](O)[C@@H]1O [β-D+Glucose]							enzymatic activity of Gox detected (GOx [3]; 1 mM in PBS 1×): the response was much slower; enzymatic activity of Gox detected (GOx [3]; 100 mM in PBS 1×): able to detect the enzymatic activity
CCCCCCCCCCCCS [dodecanethiol]							time constant for the film formation ([5]; 100 mM concentration, from ethanol, first order exponential decay fit): 382 ± 7 s
O=C(CCSSCCC(=O)ON1C(=O)CC(S(=O)(=O)O)C1=O)ON1C(=O)CC(S(=O)(=O)O)C1=O (centres unmarked) [DTSSP]							time constant of monolayer formation ([5]; Example 5, phosphate buffer pH 5.8 and DI water): 105 ± 8 s; reaction time, gold-DTSSP binding ([5]; Example 6, MSPR sensor, 660 nm, exponential fit): 209 ± 7 s; gold-DTSSP reaction time longer on MSPR sensor than on Biacore ([5]; MSPR sensor versus Biacore 3000): ca. 12%; decrease of MSPR sensor-emitted intensity at 660 nm ([5]; saturated gold-DTSSP reaction, from water baseline): 1,481 counts/s; SPR binding signal [6]: 643 RU; reaction time, gold-DTSSP binding ([6]; exponential fitting): 184 ± 3 s
OC[C@H]1O[C@H](O)[C@H](O)[C@@H](O)[C@@H]1O [αD-Glu, α-D-glucose]						0.64	
OC[C@H]1OC(O)[C@@H](O)[C@@H](O)[C@@H]1O (stereo partly drawn) [D-Man]	0.24 ± 28	58	22168	36 (15.5 dB)	579	1	

Reference: patent US8355136B2, “Sub-micron surface plasmon resonance sensor systems” (Indiana University Research and Technology Corporation, priority 2005, dated 2013)
